According to EPA's ToxValDB 9.5 (doi:10.2903/j.efsa.2010.1892):
Converted amounts (≈) assume the structure as drawn.

Tests used:
Anas platyrhynchos = conditions: acute; oral; unspecified; mortality
Apis mellifera = conditions: acute; duration: 48 hours; dermal; mortality
Bibionidae = conditions: chronic/long-term; duration: 28 days
Canidae = conditions: chronic; duration: 1 years; oral; Dog Other; food consumption
Daphnia magna = conditions: chronic/long-term; duration: 21 days; behavior
Folsomia candida = conditions: acute; duration: 14 days; mortality
Oncorhynchus mykiss = conditions: chronic/long-term; duration: 63 days
Perca sp. = conditions: acute; duration: 96 hours; mortality
Tagia sp. = conditions: acute; duration: 14 days; mortality
Adalia sp. = test: LR50; higher = less toxic; conditions: not reported; mortality
Typhlodromus pyri = test: LR50; higher = less toxic; conditions: not reported; mortality
[1] = reproduction developmental, reproduction

CC(C)(C)c1ccc(CCOc2ncnc3ccccc23)cc1 [Fenazaquin]
LD50 (Anas platyrhynchos): > 2000 mg/kg
LD50 (Apis mellifera): 1.21 µg/piece
NOEC (Bibionidae): 0.0188 mg/kg
NOAEL (Canidae): 5 mg/kg-day
LC50 (Colinus virginianus; acute, oral, diet, mortality): > 1170 mg/kg-day
LD50 (Colinus virginianus; acute, oral, mortality): 1750 mg/kg
NOEC (Colinus virginianus; [1]): 80.3 mg/kg-day
NOEC (Daphnia magna): 0.0014 mg/L
LC50 (Folsomia candida): > 1000 mg/kg
NOEC (Oncorhynchus mykiss): 0.00096 mg/L
LC50 (Perca sp.): 3.2 ng/mL (≈ 0.0104 µM)
LD50 (Rattus norvegicus; acute, oral, M, mortality): 134 mg/kg
NOAEL (Rattus norvegicus; chronic, duration: 2 years, oral, histopathology: nonneoplastic): 0.46 mg/kg-day
NOAEL (Rattus norvegicus; reproduction developmental, food consumption): 10 mg/kg-day
NOEL (Rattus norvegicus; [1]): 25 mg/kg-day
LC50 (Tagia sp.): 26.5 mg/kg
LR50 (Adalia sp.): < 21.9 g/ha
LR50 (Typhlodromus pyri): < 2 g/ha
